In ChEMBL document CHEMBL1128620, “Relationship between cytotoxicity and DNA-binding affinity of amidine derivatives of tetrahydroquino[4,3-b][1]benzazepines and tetrahydrobenzo[k]naphthyridines” (Bioorg Med Chem Lett, 1995):

Tests used:
Nucleic Acid = assay: DNA binding affinity was evaluated as thermal denaturation using calf thymus DNA; assay type: nucleic-acid assay; details: Bos taurus
CH1 = assay: In vitro cytotoxicity against CH1 ovarian carcinoma cells; assay type: functional, cell-based; details: Homo sapiens
SK-OV-3 = assay: In vitro cytotoxicity against SKOV-3 ovarian carcinoma cells; assay type: functional, cell-based; details: Homo sapiens

CNc1cccc2c1C(C)C[C@]1(C)C(NCCCO)=Nc3ccccc3[C@H]21 (some centres undefined)
ΔTm (Nucleic Acid): 0.35 °C
IC50 (CH1): 6 µM
IC50 (SK-OV-3): 12.5 µM

CCCNC1=Nc2ccccc2[C@@H]2c3cccc(NC)c3C(C)C[C@]12C (some centres undefined)
ΔTm (Nucleic Acid): 0.29 °C
IC50 (CH1): 9 µM
IC50 (SK-OV-3): 12 µM

CNc1cccc2c1C(C)C[C@]1(C)C(NCCCCN)=Nc3ccccc3[C@H]21 (some centres undefined)
ΔTm (Nucleic Acid): 1.14 °C
IC50 (CH1): 3.5 µM
IC50 (SK-OV-3): 2.25 µM

CNc1cccc2c1C(C)C[C@]1(C)C(NCCCN)=Nc3ccccc3[C@H]21 (some centres undefined)
ΔTm (Nucleic Acid): 0.88 °C
IC50 (CH1): 2 µM
IC50 (SK-OV-3): 3.1 µM

CC1C[C@]2(C)C(NCCCCN)=Nc3ccccc3[C@@H]2N(C)c2ccccc21 (some centres undefined)
ΔTm (Nucleic Acid): 0.58 °C
IC50 (CH1): 1.6 µM
IC50 (SK-OV-3): 1.6 µM

CCCNC1=Nc2ccccc2[C@@H]2N(C)c3ccccc3C(C)C[C@]12C (some centres undefined)
ΔTm (Nucleic Acid): 0.17 °C
IC50 (CH1): 10.5 µM
IC50 (SK-OV-3): 1.4 µM

CC1C[C@]2(C)C(NCCCN)=Nc3ccccc3[C@@H]2N(C)c2ccccc21 (some centres undefined)
ΔTm (Nucleic Acid): 0.46 °C
IC50 (CH1): 0.5 µM
IC50 (SK-OV-3): 3.3 µM

CC1C[C@]2(C)C(NCCCO)=Nc3ccccc3[C@@H]2N(C)c2ccccc21 (some centres undefined)
ΔTm (Nucleic Acid): 0.24 °C
IC50 (CH1): 14 µM
IC50 (SK-OV-3): 32.5 µM
